Experimental data: PubChem BioAssay (NCI)
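In this assay, cells in 96-well plates receive the compound at five concentrations for 48 hours. Endpoints are linearly interpolated between the surrounding concentrations. At the GI50, growth is halved. The concentration for full growth arrest is given as TGI.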

Key:
Experiment in all cases: NCI tumour cell line growth inhibition, 48 h
KM20L2 colon = system: KM20L2 colon
DMS 114 small cell lung = system: DMS 114 small cell lung
NCI-H226 lung = system: NCI-H226 lung
M19-MEL melanoma = system: M19-MEL melanoma
786-0 renal = system: 786-0 renal
A549 NSCLC = system: A549 NSCLC
TK-10 renal = system: TK-10 renal
NCI-H23 lung = system: NCI-H23 lung
EKVX NSCLC = system: EKVX NSCLC
SF-295 CNS = system: SF-295 CNS
OVCAR-8 ovarian = system: OVCAR-8 ovarian
HOP-62 NSCLC = system: HOP-62 NSCLC
M14 melanoma = system: M14 melanoma
UACC-257 melanoma = system: UACC-257 melanoma
HT29 colon = system: HT29 colon
A498 renal = system: A498 renal
SW-620 colon = system: SW-620 colon
HOP-92 NSCLC = system: HOP-92 NSCLC
DMS 273 small cell lung = system: DMS 273 small cell lung
CAKI-1 renal = system: CAKI-1 renal
RXF 393 renal = system: RXF 393 renal
SF-539 CNS = system: SF-539 CNS
HCT-15 colon = system: HCT-15 colon
LOX IMVI melanoma = system: LOX IMVI melanoma
SK-MEL-28 melanoma = system: SK-MEL-28 melanoma
SNB-75 CNS = system: SNB-75 CNS
IGROV1 ovarian = system: IGROV1 ovarian
CCRF-CEM leukemia = system: CCRF-CEM leukemia
OVCAR-5 ovarian = system: OVCAR-5 ovarian
RPMI-8226 leukemia = system: RPMI-8226 leukemia
HCC-2998 colon = system: HCC-2998 colon
SN12C renal = system: SN12C renal
NCI-H522 lung = system: NCI-H522 lung
OVCAR-4 ovarian = system: OVCAR-4 ovarian
KM12 colon = system: KM12 colon
SNB-78 CNS = system: SNB-78 CNS
MOLT-4 leukemia = system: MOLT-4 leukemia
SK-MEL-2 melanoma = system: SK-MEL-2 melanoma
K-562 leukemia = system: K-562 leukemia
SF-268 CNS = system: SF-268 CNS
UACC-62 melanoma = system: UACC-62 melanoma
ACHN renal = system: ACHN renal
DLD-1 colon = system: DLD-1 colon
NCI-H460 lung = system: NCI-H460 lung
SK-OV-3 ovarian = system: SK-OV-3 ovarian
HL-60(TB) leukemia = system: HL-60(TB) leukemia
SK-MEL-5 melanoma = system: SK-MEL-5 melanoma
UO-31 renal = system: UO-31 renal
HCT-116 colon = system: HCT-116 colon
SNB-19 CNS = system: SNB-19 CNS
OVCAR-3 ovarian = system: OVCAR-3 ovarian
MALME-3M melanoma = system: MALME-3M melanoma
COLO 205 colon = system: COLO 205 colon
U251 CNS = system: U251 CNS
SR leukemia = system: SR leukemia
LXFL 529 NSCLC = system: LXFL 529 NSCLC
XF 498 CNS = system: XF 498 CNS
HOP-18 NSCLC = system: HOP-18 NSCLC

C[n+]1c2ccccc2c(CNc2ccc(S(=O)(=O)N=C(N)N)cc2)c2ccccc21
TGI (KM20L2 colon): 59.6 µM
TGI (DMS 114 small cell lung): 20.8 µM
TGI (NCI-H226 lung): 10.9 µM
TGI (M19-MEL melanoma): 42 µM
TGI (786-0 renal): 43.4 µM
TGI (A549 NSCLC): > 100 µM
TGI (TK-10 renal): > 100 µM
TGI (NCI-H23 lung): 33.3 µM
TGI (EKVX NSCLC): 64.1 µM
TGI (SF-295 CNS): 23.4 µM
TGI (OVCAR-8 ovarian): 55.4 µM
TGI (HOP-62 NSCLC): 40 µM
TGI (M14 melanoma): 28 µM
TGI (UACC-257 melanoma): 41.3 µM
TGI (HT29 colon): 49.8 µM
TGI (A498 renal): 86.2 µM
TGI (SW-620 colon): 56.8 µM
TGI (HOP-92 NSCLC): 54.3 µM
TGI (DMS 273 small cell lung): 24.2 µM
TGI (CAKI-1 renal): 19.9 µM
TGI (RXF 393 renal): 34.1 µM
TGI (SF-539 CNS): 17 µM
TGI (HCT-15 colon): 32.3 µM
TGI (LOX IMVI melanoma): 20.2 µM
TGI (SK-MEL-28 melanoma): 40.7 µM
TGI (SNB-75 CNS): 39.9 µM
TGI (IGROV1 ovarian): 66.6 µM
TGI (CCRF-CEM leukemia): 7.16 µM
TGI (OVCAR-5 ovarian): > 100 µM
TGI (RPMI-8226 leukemia): 23.5 µM
TGI (HCC-2998 colon): 39.2 µM
TGI (SN12C renal): 27.8 µM
TGI (NCI-H522 lung): 32.3 µM
TGI (OVCAR-4 ovarian): > 100 µM
TGI (KM12 colon): 27.7 µM
TGI (SNB-78 CNS): 78.1 µM
TGI (MOLT-4 leukemia): 1.7 µM
TGI (SK-MEL-2 melanoma): 59.5 µM
TGI (K-562 leukemia): 52 µM
TGI (SF-268 CNS): > 100 µM
TGI (UACC-62 melanoma): 42.1 µM
TGI (ACHN renal): > 100 µM
TGI (DLD-1 colon): 65.5 µM
TGI (NCI-H460 lung): 15 µM
TGI (SK-OV-3 ovarian): > 100 µM
TGI (HL-60(TB) leukemia): 7.47 µM
TGI (SK-MEL-5 melanoma): 22.8 µM
TGI (UO-31 renal): 45.5 µM
TGI (HCT-116 colon): 27.2 µM
TGI (SNB-19 CNS): 31.6 µM
TGI (OVCAR-3 ovarian): 48.7 µM
TGI (MALME-3M melanoma): 63.1 µM

COc1cccc(-c2cc(=O)c3cc(OC)c(OC)cc3[nH]2)c1
TGI (KM20L2 colon): > 100 µM
GI50 (DMS 114 small cell lung): 54.4 µM
TGI (DMS 114 small cell lung): > 100 µM
GI50 (NCI-H226 lung): 21.5 µM
TGI (NCI-H226 lung): 79.8 µM
TGI (COLO 205 colon): > 100 µM
TGI (M19-MEL melanoma): > 100 µM
TGI (786-0 renal): > 100 µM
TGI (U251 CNS): > 100 µM
TGI (A549 NSCLC): > 100 µM
TGI (TK-10 renal): > 100 µM
TGI (NCI-H23 lung): > 100 µM
TGI (EKVX NSCLC): > 100 µM
GI50 (SF-295 CNS): 40.3 µM
TGI (SF-295 CNS): > 100 µM
TGI (OVCAR-8 ovarian): > 100 µM
TGI (HOP-62 NSCLC): > 100 µM
TGI (M14 melanoma): > 100 µM
TGI (UACC-257 melanoma): > 100 µM
TGI (HT29 colon): > 100 µM
TGI (SW-620 colon): > 100 µM
TGI (DMS 273 small cell lung): > 100 µM
GI50 (RXF 393 renal): 33.3 µM
TGI (RXF 393 renal): > 100 µM
TGI (SF-539 CNS): 77.3 µM
TGI (HCT-15 colon): > 100 µM
TGI (LOX IMVI melanoma): > 100 µM
TGI (SK-MEL-28 melanoma): > 100 µM
TGI (SNB-75 CNS): > 100 µM
TGI (IGROV1 ovarian): > 100 µM
TGI (CCRF-CEM leukemia): > 100 µM
TGI (RPMI-8226 leukemia): > 100 µM
TGI (HCC-2998 colon): > 100 µM
TGI (SN12C renal): > 100 µM
TGI (SR leukemia): > 100 µM
TGI (NCI-H522 lung): 42.4 µM
TGI (KM12 colon): > 100 µM
TGI (SNB-78 CNS): > 100 µM
TGI (MOLT-4 leukemia): > 100 µM
TGI (K-562 leukemia): > 100 µM
GI50 (SF-268 CNS): 49.6 µM
TGI (SF-268 CNS): > 100 µM
TGI (LXFL 529 NSCLC): > 100 µM
TGI (UACC-62 melanoma): > 100 µM
TGI (ACHN renal): > 100 µM
TGI (DLD-1 colon): > 100 µM
TGI (NCI-H460 lung): > 100 µM
TGI (SK-OV-3 ovarian): > 100 µM
TGI (HL-60(TB) leukemia): > 100 µM
TGI (UO-31 renal): > 100 µM
GI50 (HCT-116 colon): 59.2 µM
TGI (HCT-116 colon): > 100 µM
TGI (SNB-19 CNS): > 100 µM
GI50 (OVCAR-3 ovarian): 33.5 µM
TGI (OVCAR-3 ovarian): > 100 µM
TGI (MALME-3M melanoma): > 100 µM

Cc1ccc(NC(=O)CCC(CC(=O)C(C)(C)C)=NNC(=O)C(=O)NN)cc1C
TGI (KM20L2 colon): > 100 µM
TGI (NCI-H226 lung): > 100 µM
TGI (COLO 205 colon): > 100 µM
TGI (M19-MEL melanoma): > 100 µM
TGI (786-0 renal): > 100 µM
TGI (A549 NSCLC): > 100 µM
TGI (TK-10 renal): > 100 µM
TGI (NCI-H23 lung): > 100 µM
TGI (EKVX NSCLC): > 100 µM
TGI (SF-295 CNS): > 100 µM
TGI (OVCAR-8 ovarian): > 100 µM
TGI (HOP-62 NSCLC): > 100 µM
TGI (M14 melanoma): > 100 µM
TGI (UACC-257 melanoma): > 100 µM
TGI (HT29 colon): > 100 µM
TGI (XF 498 CNS): > 100 µM
TGI (SW-620 colon): > 100 µM
TGI (DMS 273 small cell lung): > 100 µM
TGI (CAKI-1 renal): > 100 µM
TGI (RXF 393 renal): > 100 µM
TGI (SF-539 CNS): > 100 µM
TGI (HCT-15 colon): > 100 µM
TGI (LOX IMVI melanoma): > 100 µM
TGI (SK-MEL-28 melanoma): > 100 µM
TGI (SNB-75 CNS): > 100 µM
TGI (IGROV1 ovarian): > 100 µM
TGI (CCRF-CEM leukemia): > 100 µM
TGI (OVCAR-5 ovarian): > 100 µM
TGI (RPMI-8226 leukemia): > 100 µM
TGI (HCC-2998 colon): > 100 µM
TGI (SN12C renal): > 100 µM
TGI (NCI-H522 lung): > 100 µM
TGI (OVCAR-4 ovarian): > 100 µM
TGI (KM12 colon): > 100 µM
TGI (MOLT-4 leukemia): > 100 µM
TGI (SK-MEL-2 melanoma): > 100 µM
TGI (K-562 leukemia): > 100 µM
TGI (HOP-18 NSCLC): > 100 µM
TGI (SF-268 CNS): > 100 µM
TGI (LXFL 529 NSCLC): > 100 µM
TGI (UACC-62 melanoma): > 100 µM
TGI (ACHN renal): > 100 µM
TGI (DLD-1 colon): > 100 µM
TGI (NCI-H460 lung): > 100 µM
TGI (SK-OV-3 ovarian): > 100 µM
TGI (HL-60(TB) leukemia): > 100 µM
TGI (SK-MEL-5 melanoma): > 100 µM
TGI (UO-31 renal): > 100 µM
TGI (SNB-19 CNS): > 100 µM
TGI (OVCAR-3 ovarian): > 100 µM
TGI (MALME-3M melanoma): > 100 µM

O=C1CCCCC1CN1CCCC1 (configuration not stated)
TGI (KM20L2 colon): > 100 µM
TGI (DMS 114 small cell lung): > 100 µM
TGI (NCI-H226 lung): > 100 µM
TGI (COLO 205 colon): > 100 µM
TGI (M19-MEL melanoma): > 100 µM
TGI (786-0 renal): > 100 µM
TGI (U251 CNS): > 100 µM
TGI (A549 NSCLC): > 100 µM
TGI (TK-10 renal): > 100 µM
TGI (NCI-H23 lung): > 100 µM
TGI (EKVX NSCLC): > 100 µM
TGI (SF-295 CNS): > 100 µM
TGI (OVCAR-8 ovarian): > 100 µM
TGI (HOP-62 NSCLC): > 100 µM
TGI (M14 melanoma): > 100 µM
TGI (UACC-257 melanoma): > 100 µM
TGI (HT29 colon): > 100 µM
TGI (A498 renal): > 100 µM
TGI (XF 498 CNS): > 100 µM
TGI (SW-620 colon): > 100 µM
TGI (DMS 273 small cell lung): > 100 µM
TGI (HCT-15 colon): > 100 µM
TGI (LOX IMVI melanoma): > 100 µM
TGI (SK-MEL-28 melanoma): > 100 µM
TGI (SNB-75 CNS): > 100 µM
TGI (IGROV1 ovarian): > 100 µM
TGI (CCRF-CEM leukemia): > 100 µM
TGI (OVCAR-5 ovarian): > 100 µM
TGI (RPMI-8226 leukemia): > 100 µM
TGI (HCC-2998 colon): > 100 µM
TGI (SN12C renal): > 100 µM
TGI (SR leukemia): > 100 µM
TGI (NCI-H522 lung): 0.521 µM
TGI (OVCAR-4 ovarian): > 100 µM
TGI (KM12 colon): > 100 µM
TGI (SNB-78 CNS): > 100 µM
TGI (MOLT-4 leukemia): > 100 µM
TGI (SK-MEL-2 melanoma): > 100 µM
TGI (K-562 leukemia): > 100 µM
TGI (SF-268 CNS): > 100 µM
TGI (LXFL 529 NSCLC): > 100 µM
TGI (ACHN renal): > 100 µM
TGI (DLD-1 colon): > 100 µM
TGI (NCI-H460 lung): > 100 µM
TGI (SK-OV-3 ovarian): > 100 µM
TGI (SK-MEL-5 melanoma): > 100 µM
TGI (HCT-116 colon): > 100 µM
TGI (OVCAR-3 ovarian): > 100 µM
